Test results published in doi:10.1101/151233v4 (biorxiv, 2018).

Molecular target: T1, truncated chicken MR (GAL4-DBD-MR-LBD) (Gallus gallus, UniProt C1KB84)
T1 sequence (C1KB84 729-986): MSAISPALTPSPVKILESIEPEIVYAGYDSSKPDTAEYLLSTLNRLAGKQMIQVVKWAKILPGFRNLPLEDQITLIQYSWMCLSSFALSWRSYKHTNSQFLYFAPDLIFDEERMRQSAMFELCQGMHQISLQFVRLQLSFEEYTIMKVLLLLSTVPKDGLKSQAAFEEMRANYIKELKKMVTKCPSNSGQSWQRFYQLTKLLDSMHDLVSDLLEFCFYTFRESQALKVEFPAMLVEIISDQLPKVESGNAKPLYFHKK
Experiment: luciferase reporter transactivation in HEK293, GAL4-DBD fusion
Assay type: cell-based

SMILES | EC50 [nM]
C[C@]12CCC(=O)C=C1CC[C@@H]1[C@@H]2[C@@H](O)C[C@]2(C=O)[C@@H](C(=O)CO)CC[C@@H]12 [aldosterone] | 0.13
C[C@]12CCC(=O)C=C1CC[C@@H]1[C@@H]2[C@@H](O)C[C@@]2(C)[C@H]1CC[C@]2(O)C(=O)CO [cortisol] | 0.69
